Converted amounts (≈) assume the structure as drawn. Like-named read-outs stand apart in the source and are kept apart here. Marks after values point to notes of the source that are not given here.
How the values were obtained:
[1] = Measurement of P: partition coefficient in 1-octanol/water system; details: 25° C., observed, for aspirin and caffeine the parent drug itself
[2] = Measurement of solubility in water, octanol saturated water and water saturated octanol; details: for logSR (Swo/Sow): log solubility ratio; for logSR (Swo/Sow) / Sow / Swo / Sw: 25° C.; for Sow: solubility in octanol saturated water; for Swo: solubility in water saturated octanol; for Sw: solubility in water
Protocol: Solubilities were determined at 25° C. in water (Sw), octanol saturated water (Sow), water saturated octanol (Swo). An excess of the sample was added to 15 ml of each solvent and stirred vigorously at 25° C. for 8 hours. […] The supernatant was collected. The supernatant samples after appropriate dilutions with respective solvent were analyzed by UV spec using a standard plot of solute in the same medium. Solubility of copper acetate in water saturated octanol was determined by extracting 200 ml saturated wo solution into 20 ml ow.

[3] = Stability of mixed-ligand Cu(II) complexes in solution (ESI-MS, 1H DOSY NMR); type: physicochemical; details: 1H DOSY NMR in D2O, 298K
Protocol: NMR tubes with a 5-mm internal diameter were used. […] Diffusion coefficients were measured by incrementing the amplitude of the field gradient pulse over 32 steps (0.5-30 G/cm). The bipolar gradient duration and the diffusion time were optimized to 2.4 ms and 14.9 ms, respectively. The intensities were fitted to an exponential decay using the SimFit program within the Topspin software to provide estimates of the diffusion constant.
The formation of Cu(ASP)2(AL)2(H2O) is also observed by us from the ESI-MS of ASP-7 and ASP-8 in aqueous solution. Indeed, for mononuclear Cu(II) species, the coordination of anionic API and neutral AL to copper in solution has been confirmed by the mass spectra.
Since structures of binuclear Cu(II) complexes are analogous, as a model, ASP-3 was investigated by using NMR diffusion measurement for stability studies. Diffusion-Ordered Spectroscopy […]) methods^11 are based on pulsed-field gradient spin-echo NMR experiments. […] The small peak on the left at 8.160 ppm is assigned to one proton of 3-Br-Py by comparing the ^1H NMR spectra of ASP-3 and ASP-3/3-Br-Py mixture. Peaks in the range of 7-8 ppm are due to the peak overstocking of aspirin and 3-Br-Py aromatic protons. […] The diffusion coefficient for ASP-3 was 3.819×10^−9 m^2/s. […]

[4] = water, cited from earlier work

| Molecule | logP of complex [1] | logSR (Swo/Sow) [2] | Sow [2] | Swo [2] | Sw [2] | diffusion coefficient [3] | solubility thermodynamic at 8 h ([2]; octanol saturated water, 25 °C, water, thermodynamic from solid) [µg/mL] | logP (physchem) | Sw ([4]; from reference Koch et al. J. Pharm. Sci. 1978) | Sw ([4]; from MSDS) |
| --- | --- | --- | --- | --- | --- | --- | --- | --- | --- | --- |
| CC(=O)Oc1ccccc1C(=O)[O-].CC(=O)Oc1ccccc1C(=O)[O-].CC(=O)Oc1ccccc1C(=O)[O-].CC(=O)Oc1ccccc1C(=O)[O-].[Cu+2].[Cu+2] [ASP-1, Cu2(ASP)4] | −0.2371(267) | −0.4847 | 2.981(3) mg/ml | 0.9767(36) mg/ml | 3.414(25) mg/ml |  |  |  |  |  |
| CC(=O)Oc1ccccc1C(=O)[O-].CC(=O)Oc1ccccc1C(=O)[O-].CC(=O)Oc1ccccc1C(=O)[O-].CC(=O)Oc1ccccc1C(=O)[O-].CN(C)C=O.CN(C)C=O.[Cu+2].[Cu+2] [ASP-2, Cu2(ASP)4(DMF)2] | −0.3484(166) | −0.4873 | 4.493(4) mg/ml | 1.463(26) mg/ml | 3.092(33) mg/ml |  |  |  |  |  |
| Brc1cccnc1.Brc1cccnc1.CC(=O)Oc1ccccc1C(=O)[O-].CC(=O)Oc1ccccc1C(=O)[O-].CC(=O)Oc1ccccc1C(=O)[O-].CC(=O)Oc1ccccc1C(=O)[O-].[Cu+2].[Cu+2] [ASP-3, Cu2(ASP)4(3-Br-Py)2] | 0.1066(58) | −0.09583 | 1.566(5) mg/ml | 1.256(15) mg/ml | 1.564(3) mg/ml | 3.819×10^−9 m^2/s |  |  |  |  |
| CC(=O)Oc1ccccc1C(=O)[O-].CC(=O)Oc1ccccc1C(=O)[O-].CC(=O)Oc1ccccc1C(=O)[O-].CC(=O)Oc1ccccc1C(=O)[O-].[Cu+2].[Cu+2].c1ccc2ncccc2c1.c1ccc2ncccc2c1 [ASP-4, Cu2(ASP)4(Quinoline)2] | 0.4772(140) | 0.2133 | 3.342(3) mg/ml | 5.460(23) mg/ml | 2.729(1) mg/ml |  |  |  |  |  |
| CC(=O)Oc1ccccc1C(=O)[O-].CC(=O)Oc1ccccc1C(=O)[O-].[Cu+2].c1ccncc1.c1ccncc1 [ASP-5, Cu(ASP)2(Pyridine)2] |  | −0.4770 | 3.629(24) mg/ml | 1.210(47) mg/ml | 3.425(21) mg/ml |  |  |  |  |  |
| CC(=O)Oc1ccccc1C(=O)[O-].CC(=O)Oc1ccccc1C(=O)[O-].NC(=O)c1ccncc1.NC(=O)c1ccncc1.[Cu+2] [ASP-7, Cu(ASP)2(Isonicotinamide)2] | −0.4723(272) | −0.5333 | 5.654(20) mg/ml | 1.673(9) mg/ml | 9.259(5) mg/ml |  |  |  |  |  |
| CC(=O)Oc1ccccc1C(=O)[O-].CC(=O)Oc1ccccc1C(=O)[O-].NC(=O)c1cccnc1.NC(=O)c1cccnc1.[Cu+2] [ASP-8, Cu(ASP)2(Nicotinamide)2] | −0.5257(136) | −0.6490 | 3.361(29) mg/ml | 0.7541(97) mg/ml | 4.417(50) mg/ml |  |  |  |  |  |
| CC(=O)Oc1ccccc1C(=O)[O-].CC(=O)Oc1ccccc1C(=O)[O-].[Cu+2].c1ccc(-c2cccnc2)cc1.c1ccc(-c2cccnc2)cc1 [ASP-9, Cu(ASP)2(3-Phenyl-Pyridine)2] |  | 0.4495 | 0.4085(17) mg/ml | 1.150(20) mg/ml | 0.5415(7) mg/ml |  |  |  |  |  |
| CC(=O)Oc1ccccc1C(=O)O [Aspirin(ASP), acetylsalicylic acid, reference compound] |  | 1.101 |  | 54.16(94) mg/ml |  |  | 4300 (≈ 23.8 mM) | 1.32 | 4.600^b mg/ml |  |
| CC(=O)[O-].CC(=O)[O-].COc1cccc(OC)c1C(=O)[O-].COc1cccc(OC)c1C(=O)[O-].O.O.[Cu+2].[Cu+2] [MC-2, Cu2(CH3COO)2(DMB)2(H2O)2] | −1.496(15) | −1.428 | 15.64(14) mg/ml | 0.5841(103) mg/ml | 15.82(11) mg/ml |  |  |  |  |  |
| COc1cccc(OC)c1C(=O)[O-].COc1cccc(OC)c1C(=O)[O-].COc1cccc(OC)c1C(=O)[O-].COc1cccc(OC)c1C(=O)[O-].O.O.[Cu+2].[Cu+2] [MC-3, Cu2(DMB)4(H2O)2] | −1.442(27) | −0.9168 | 31.97(19) mg/ml | 3.872(125) mg/ml | 33.61(21) mg/ml |  |  |  |  |  |
| O.O.O=C(Oc1ccccc1C(=O)[O-])c1ccccc1O.O=C(Oc1ccccc1C(=O)[O-])c1ccccc1O.O=C(Oc1ccccc1C(=O)[O-])c1ccccc1O.O=C(Oc1ccccc1C(=O)[O-])c1ccccc1O.[Cu+2].[Cu+2] [SAS-1, Cu2(SAS)4(H2O)2] | 0.06927(1394) | 1.033 | 0.2962(10) mg/ml | 3.200(5) mg/ml | 0.2791(6) mg/ml |  |  |  |  |  |
| Clc1cccnc1.Clc1cccnc1.O=C(Oc1ccccc1C(=O)[O-])c1ccccc1O.O=C(Oc1ccccc1C(=O)[O-])c1ccccc1O.O=C(Oc1ccccc1C(=O)[O-])c1ccccc1O.O=C(Oc1ccccc1C(=O)[O-])c1ccccc1O.[Cu+2].[Cu+2] [SAS-3, Cu2(SAS)4(3-Cl-Pyridine)2] |  | 0.7472 | 0.1259(4) mg/ml | 0.7034(61) mg/ml | 0.1239(1) mg/ml |  |  |  |  |  |
| O=C(Oc1ccccc1C(=O)[O-])c1ccccc1O.O=C(Oc1ccccc1C(=O)[O-])c1ccccc1O.O=C(Oc1ccccc1C(=O)[O-])c1ccccc1O.O=C(Oc1ccccc1C(=O)[O-])c1ccccc1O.[Cu+2].[Cu+2].c1ccc(Cc2ccncc2)cc1.c1ccc(Cc2ccncc2)cc1 [SAS-4, Cu2(SAS)4(4-Benzyl-Pyridine)2] |  | 1.336 | 0.0153(3) mg/ml | 0.3314(22) mg/ml | 0.0134(3) mg/ml |  |  |  |  |  |
| C1CCOC1.C1CCOC1.O=C(Oc1ccccc1C(=O)[O-])c1ccccc1O.O=C(Oc1ccccc1C(=O)[O-])c1ccccc1O.O=C(Oc1ccccc1C(=O)[O-])c1ccccc1O.O=C(Oc1ccccc1C(=O)[O-])c1ccccc1O.[Cu+2].[Cu+2].c1ccc(-c2ccncc2)cc1.c1ccc(-c2ccncc2)cc1 [SAS-5, Cu2(SAS)4(4-Phenyl-Pyridine)2(THF)2] | 1.231(53) | 1.593 | 0.0315(2) mg/ml | 1.236(18) mg/ml | 0.0303(3) mg/ml |  |  |  |  |  |
| O=C(Oc1ccccc1C(=O)[O-])c1ccccc1O.O=C(Oc1ccccc1C(=O)[O-])c1ccccc1O.[Cu+2].c1ccncc1.c1ccncc1.c1ccncc1 [SAS-6, Cu(SAS)2(Pyridine)3] |  | 0.7655 | 0.3291(8) mg/ml | 1.918(5) mg/ml | 0.4065(8) mg/ml |  |  |  |  |  |
| Cc1ccncc1.Cc1ccncc1.O=C(Oc1ccccc1C(=O)[O-])c1ccccc1O.O=C(Oc1ccccc1C(=O)[O-])c1ccccc1O.[Cu+2] [SAS-8, Cu(SAS)2(4-Me-Pyridine)2] |  | 0.9488 | 0.2174(10) mg/ml | 1.932(23) mg/ml | 0.2301(18) mg/ml |  |  |  |  |  |
| CCc1ccncc1.CCc1ccncc1.O=C(Oc1ccccc1C(=O)[O-])c1ccccc1O.O=C(Oc1ccccc1C(=O)[O-])c1ccccc1O.[Cu+2] [SAS-9, Cu(SAS)2(4-Et-Pyridine)2] |  | 1.115 | 0.1104(8) mg/ml | 1.438(9) mg/ml | 0.1143(2) mg/ml |  |  |  |  |  |
| Cu2(CH3COO)4(H2O)2 [MC-1, reference compound] | −2.222(553) | −2.807 |  | 0.1161(438) mg/ml |  |  |  |  |  | 72^a mg/ml |
| Cu(ASP)2(Isonicotinamide)2(AcCN)2 [ASP-6] | −0.4647(274) | −0.4980 | 5.767(7) mg/ml | 1.832(17) mg/ml | 9.315(10) mg/ml |  |  |  |  |  |
| Cu(SAS)2(Isonicotinamide)2(AcCN)2/3 [SAS-7] | 0.03802(967) | 0.4241 | 0.2890(10) mg/ml | 0.8344(165) mg/ml | 0.3143(9) mg/ml |  |  |  |  |  |

Reference: patent US20090209046A1, “Neutral Pharmaceuticals” (priority 2006, published 2009)
